Data from patent US9745289B2, “Aldosterone synthase inhibitors” (Boehringer Ingelheim International GmbH, priority 2014, dated 2017).

molecular target: cortisol synthase (CYP11B1) (Macaca fascicularis, UniProt A0A2K5ULY1); assay: Inhibition of Cortisol Synthesis; format: biochemical, cynomolgus monkey; conditions: cynomolgus adrenal gland mitochondria; 150 units of CYP11B1, 11-deoxycortisol as substrate, cortisol measured as product
Procedure: The aldosterone synthase and cortisol synthase inhibition assays employ cynomolgus adrenal gland mitochondria as the source of aldosterone synthase (CYP11B2) and cortisol synthase (CYP11B1). […] Activity of CYP11B2 and CYP11B1 in these preparations is defined as the amount of enzyme that generates 1 pmol of product in one hour under the conditions described.
Assays are performed in 96-well format in a final volume of 60 μL/well, containing 100 mM potassium phosphate, pH 7.4, 1% (v/v) DMSO, and additionally, 2 μM of corticosterone and 50 units of CYP11B2 activity. Reactions are started by the addition of NADPH to 1 mM and allowed to proceed for 90 minutes at 37° C. Reactions are terminated by the addition of 60 μL of MeCN containing an internal standard for mass spectrometry. One hundred microliters are then transferred to a glass filter plate and centrifuged at 570×g for 5 minutes and the filtrate is collected. Reaction product aldosterone is quantified by mass spectrometry. To determine the assay blank value (0% activity), NADPH is omitted from some reactions.
Dose dependent inhibition is quantified by the inclusion of compound at various concentrations. Maximum activity (100%) is defined by reactions containing NADPH, but without compound.
Assays are performed as for aldosterone synthase except for the use of 150 units of CYP11B1, 11-deoxycortisol as substrate and cortisol measured as product.

Row | SMILES | IC50 [µM]
1 | NC(=O)c1cccc2c1OCC(c1cncc(C3(F)CCOCC3)c1)O2 (single isomer, unassigned) [Cpd 32B, 2-[5-(4-Fluoro-tetrahydro-pyran-4-yl)-pyridin-3-yl]-2,3-dihydro-benzo[1,4]dioxine-5-carboxylic acid amide] | 0.35
2 | CNC(=O)c1cccc2c1OCC(c1cncc(OC3CCN(C(C)=O)CC3)c1)O2 (single isomer, unassigned) [Cpd 33A, 2-[5-(1-Acetyl-piperidin-4-yloxy)-pyridin-3-yl]-2,3-dihydro-benzo[1,4]dioxine-5-carboxylic acid methylamide] | > 30
3 | CNC(=O)c1cccc2c1OCC(c1cncc(OC3CCN(C(C)=O)CC3)c1)O2 (single isomer, unassigned) [Cpd 33B, 2-[5-(1-Acetyl-piperidin-4-yloxy)-pyridin-3-yl]-2,3-dihydro-benzo[1,4]dioxine-5-carboxylic acid methylamide] | > 30
4 | N#Cc1cccc2c1OCC(c1cncc(CN3CCOC3=O)c1)O2 (single isomer, unassigned) [Cpd 34A, 2-[5-(2-Oxo-oxazolidin-3-ylmethyl)-pyridin-3-yl]-2,3-dihydro-benzo[1,4]dioxine-5-carbonitrile] | 8.5
5 | N#Cc1cccc2c1OCC(c1cncc(CN3CCOC3=O)c1)O2 (single isomer, unassigned) [Cpd 34B, 2-[5-(2-Oxo-oxazolidin-3-ylmethyl)-pyridin-3-yl]-2,3-dihydro-benzo[1,4]dioxine-5-carbonitrile] | > 30
6 | CN1C(=O)CCC1c1cncc(C2COc3c(C#N)cccc3O2)c1 (single isomer, unassigned) [Cpd 35A, 2-[5-(1-Methyl-5-oxo-pyrrolidin-2-yl)-pyridin-3-yl]-2,3-dihydro-benzo[1,4] dioxine-5-carbonitrile] | 0.53
7 | CN1C(=O)CCC1c1cncc(C2COc3c(C#N)cccc3O2)c1 (single isomer, unassigned) [Cpd 35B, 2-[5-(1-Methyl-5-oxo-pyrrolidin-2-yl)-pyridin-3-yl]-2,3-dihydro-benzo[1,4] dioxine-5-carbonitrile] | 6.2
8 | N#Cc1cccc2c1OCC(c1cncc(CN3CCOCC3=O)c1)O2 (single isomer, unassigned) [Cpd 36A, 2-[5-(3-Oxo-morpholin-4-ylmethyl)-pyridin-3-yl]-2,3-dihydro-benzo[1,4]dioxine-5-carbonitrile] | > 30
9 | N#Cc1cccc2c1OCC(c1cncc(CN3CCOCC3=O)c1)O2 (single isomer, unassigned) [Cpd 36B, 2-[5-(3-Oxo-morpholin-4-ylmethyl)-pyridin-3-yl]-2,3-dihydro-benzo[1,4]dioxine-5-carbonitrile] | 5.8
10 | CS(=O)(=O)Cc1cncc(C2COc3c(C#N)cccc3O2)c1 (single isomer, unassigned) [Cpd 37A, 2-(5-Methanesulfonylmethyl-pyridin-3-yl)-2,3-dihydro-benzo[1,4]dioxine-5-carbonitrile] | 25
11 | CS(=O)(=O)Cc1cncc(C2COc3c(C#N)cccc3O2)c1 (single isomer, unassigned) [Cpd 37B, 2-(5-Methanesulfonylmethyl-pyridin-3-yl)-2,3-dihydro-benzo[1,4]dioxine-5-carbonitrile] | 8
12 | CC(=O)N1CCC(Oc2cncc(C3COc4c(C#N)cccc4O3)c2)CC1 (single isomer, unassigned) [Cpd 38A, 2-[5-(1-Acetyl-piperidin-4-yloxy)-pyridin-3-yl]-2,3-dihydro-benzo[1,4]dioxine-5-carbonitrile] | 15
13 | CC(=O)N1CCC(Oc2cncc(C3COc4c(C#N)cccc4O3)c2)CC1 (single isomer, unassigned) [Cpd 38B, 2-[5-(1-Acetyl-piperidin-4-yloxy)-pyridin-3-yl]-2,3-dihydro-benzo[1,4]dioxine-5-carbonitrile] | 0.7
14 | N#Cc1cccc2c1OCC(c1cncc(CNC(=O)C3CC3)c1)O2 (single isomer, unassigned) [Cpd 39A, Cyclopropanecarboxylic acid [5-(5-cyano-2,3-dihydro-benzo[1,4]dioxin-2-yl)-pyridin-3-ylmethyl]-amide] | 7.3
15 | N#Cc1cccc2c1OCC(c1cncc(CNC(=O)C3CC3)c1)O2 (single isomer, unassigned) [Cpd 39B, Cyclopropanecarboxylic acid [5-(5-cyano-2,3-dihydro-benzo[1,4]dioxin-2-yl)-pyridin-3-ylmethyl]-amide] | > 30
16 | N#Cc1cccc2c1OCC(c1cncc(-c3ccc(S(N)(=O)=O)cc3)c1)O2 (single isomer, unassigned) [Cpd 40A, 4-[5-(5-Cyano-2,3-dihydro-benzo[1,4]dioxin-2-yl)-pyridin-3-yl]-benzenesulfonamide] | > 30
17 | N#Cc1cccc2c1OCC(c1cncc(-c3ccc(S(N)(=O)=O)cc3)c1)O2 (single isomer, unassigned) [Cpd 40B, 4-[5-(5-Cyano-2,3-dihydro-benzo[1,4]dioxin-2-yl)-pyridin-3-yl]-benzenesulfonamide] | 11
18 | N#Cc1cccc2c1OCC(c1cncc(CN3CCCCS3(=O)=O)c1)O2 (single isomer, unassigned) [Cpd 41A, 2-[5-(1,1-Dioxo-1lambda6-[1,2]thiazinan-2-ylmethyl)-pyridin-3-yl]-2,3-dihydro-benzo[1,4]dioxine-5-carbonitrile] | 24
19 | N#Cc1cccc2c1OCC(c1cncc(CN3CCCCS3(=O)=O)c1)O2 (single isomer, unassigned) [Cpd 41B, 2-[5-(1,1-Dioxo-1lambda6-[1,2]thiazinan-2-ylmethyl)-pyridin-3-yl]-2,3-dihydro-benzo[1,4]dioxine-5-carbonitrile] | 3.9
20 | CN(C)C(=O)COCc1cncc(C2COc3c(C#N)cccc3O2)c1 (single isomer, unassigned) [Cpd 42A, 2-[5-(5-Cyano-2,3-dihydro-benzo[1,4]dioxin-2-yl)-pyridin-3-ylmethoxy]-N,N-dimethyl-acetamide] | 18
21 | CN(C)C(=O)COCc1cncc(C2COc3c(C#N)cccc3O2)c1 (single isomer, unassigned) [Cpd 42B, 2-[5-(5-Cyano-2,3-dihydro-benzo[1,4]dioxin-2-yl)-pyridin-3-ylmethoxy]-N,N-dimethyl-acetamide] | 1.3
22 | N#Cc1cccc2c1OCC(c1cncc(CC(=O)N3CCOCC3)c1)O2 (single isomer, unassigned) [Cpd 43A, 2-[5-(2-Morpholin-4-yl-2-oxo-ethyl)-pyridin-3-yl]-2,3-dihydro-benzo[1,4]dioxine-5-carbonitrile] | 22
23 | N#Cc1cccc2c1OCC(c1cncc(CC(=O)N3CCOCC3)c1)O2 (single isomer, unassigned) [Cpd 43B, 2-[5-(2-Morpholin-4-yl-2-oxo-ethyl)-pyridin-3-yl]-2,3-dihydro-benzo[1,4]dioxine-5-carbonitrile] | > 30
24 | CS(=O)(=O)COc1cncc(C2COc3c(C#N)cccc3O2)c1 (single isomer, unassigned) [Cpd 44A, 2-(5-Methanesulfonylmethoxy-pyridin-3-yl)-2,3-dihydro-benzo[1,4]dioxine-5-carbonitrile] | 2.2
25 | CS(=O)(=O)COc1cncc(C2COc3c(C#N)cccc3O2)c1 (single isomer, unassigned) [Cpd 44B, 2-(5-Methanesulfonylmethoxy-pyridin-3-yl)-2,3-dihydro-benzo[1,4]dioxine-5-carbonitrile] | 13
